The values that follow are results of earlier work, collected in US20090232909A1, “Method for determining physiological effects of hemoglobin” (priority 1999, published 2009).

This data set concerns myoglobin. The following applies: cited from earlier work.

With `[N]=O` [NO, nitric oxide], the “rate of NO binding to ferrous myoglobin” value was 2.5e+07 M⁻¹ s⁻¹ and the “rate of NO oxidation of oxymyoglobin” value is listed as 3.4×10^7 M^−1 sect^−1.
